The text below walks through data of patent US20120115778A1, “Methods of Suppressing Appetite by the Administration of Antagonists of the Serotonin HTR1a or HTR2b Receptors or Inhibitors of TPH2” (The Trustees of Columbia University in the City of New York, priority 2009, published 2012).

The test system of test [1] is CREB phosphorylation in arcuate neurons. Briefly: CREB phosphorylation in hypothalamic explant cultures (immunofluorescence of p-CREB). To be noted: hypothalamic explants treated with serotonin. The test is classed as cell-based, mice. Here is the method: FIG. 18. (A) Western blot analysis of CREB phosphorylation and CREB in hypothalamic explants treated with PBS, serotonin (50 µM), Htr1a antagonist (LY426955) (50 µM) or serotonin (50 µM)+Htr1a antagonist (LY426955) (50 µM). (B) Analysis of CREB phosphorylation by immunofluorescence using P-CREB (S133) antibody. Immunofluorescence was performed on coronal sections of wild type (WT) hypothalamic explants previously treated with, PBS, 50 µM serotonin, 50 µM Htr1a antagonist (LY426955) or 50 µM serotonin+50 µM Htr1a antagonist (LY426955) for 30 min. The first row represents large bright field images of hypothalamic sections and the immunofluorescence analysis of the restricted hypothalamic region containing the Arcuate (Arc) neurons. Ventromedial hypothalamus (VMH) and Arcuate (Arc) are outlined with dashed. (C-D) Analysis of the appetite of CrebPomc−/− mice. (C) Measurement of the food intake (g) within 12 hours and 24 hours and (D) body weight analysis in WT, CrebPomc+/− and CrebPomc−/− mice. *(p<0.05, SEM). (E) Real-time PCR analysis of Mc4r, Pomc-1, Cart, Mch, Hypocretine and Npy expression in hypothalamus of WT and CrebPomc−/− mice. *(p<0.05, SEM).
Htr1a is a […] coupled receptor that signals through the cAMP-PKA-dependent pathway. […]

Test [2] concerns c-Fos expression in neurons of the paraventricular and arcuate nuclei. Briefly: Melanocortin sensitivity analysis: c-Fos expression after ICV Mc4r agonist. Particulars: ICV infusion, both WT and Tph2-/- mice. The test is classed as in vivo. On the procedure: A survey was carried out of the expression of genes in hypothalamic neurons that may mediate leptin regulation of appetite and the expression of which is perturbed in Tph2−/− mice. […] Two observations support the notion that the appetite phenotype of the Tph2−/− mice is caused, at least in part, by an increase in melanocortin signaling. […] Moreover, Mc4r expression was increased ˜2 fold in Htr1a−/− and ˜1.6 fold in Htr2bPomc−/− mice, but was unaffected in Htr2c−/− mice (FIG. 6J and data not shown).
To analyze changes in melanocortin sensitivity in Tph2−/− mice, MTII (2 μg) or saline was administered (ICV) into WT and Tph2−/− mice. 3 hours later mice were transcardially perfused with 4% PFA, brains were dissected and postfixed in 4% PFA overnight at 4° C. Following cryoprotection in 20% sucrose, brains were coronally sectioned at 30 μm thickness. For colorimetric cFos immunohistochemistry, sections were incubated for 16 hrs at 4° C. in rabbit anti-cFos antiserum (Ab-5; 1:3000 dilution; Calbiochem), incubated with biotinylated goat anti-rabbit IgG secondary antiserum (1:600; Vector laboratories) for 2 h at room temperature, and then incubated in avidin biotin complex (Vector Labs). Color was developed using Vector ABC kit.

The subject of test [3] is serotonergic neurons. In words: Whole cell patch clamp recording in brain slices containing dorsal raphe. The test is classed as cell-based. To be noted: WT mice. On the procedure:
The mediation of peripheral hormone action on the output of the brain relies on altered neuronal circuit activity. Interaction between neuronal circuits hinges on electric properties of neurons, particularly on the generation of action potentials. Thus, to test whether leptin directly alters serotonin output from brainstem neurons, the responses of serotonin-producing cells to leptin were analyzed with whole cell patch clamp recording in brain slices containing dorsal raphe (DR). Slices were taken from WT animals and from mice lacking ObRb selectively in Tph2-expressing neurons (ObRbSERT−/− mice). Serotonergic neurons were identified according to their unique properties (long-duration action potential, activation by norepinephrine and inhibition by serotonin itself) (Liu et al., 2002, J. Neurosci. 22:9453-9464). Since serotonergic neurons are usually quiescent in slices because of the loss of noradrenergic inputs, action potentials in these neurons were restored by application of alpha-1 adrenergic agonist phenylephrine (3 μM) in the bath (Liu et al., 2002, J. Neurosci. 22:9453-9464). […]
Whole-cell current clamp was performed to observe action potentials in DR seritonergic (5-HT) neurons with a Multiclamp 700A amplifier (Axon instrument, CA). […] Electrophysiological data were analyzed with Axograph 4.9 and plotted with Igor Pro software (WaveMetrics, Lake Oswego, Oreg.).
A general note: In patch-clamp work, channel activity is measured electrically.

The test system of test [4] is Tph2 expression. In words: qPCR analysis of Tph2 expression following leptin ICV infusion. Particulars: WT mice, different doses and time points. It is filed as in vivo. The text has this: FIG. 5. Leptin inhibits bone mass accrual by inhibiting brain-derived serotonin synthesis. (A) In situ hybridization analysis and co-immunolocalization of ObRb expression in serotonergic neurons. (B-C) qPCR analysis of Tph2 expression (B) and brainstem serotonin content (C) at different ages in WT and ob/ob female mice. (D-E) qPCR analysis of Tph2 expression following intra-cerebroventricular (ICV) infusion of leptin at different doses (D) and at different time points (E) in WT mice. (F) Immunohistochemical analysis of STAT3 phosphorylation in the dorsal and median raphe following leptin ICV. Arrows indicate pSTAT3/β-Gal positive cells. (G-H) qPCR analysis of Tph2 expression (G) and brainstem serotonin content (H) in WT, ob/ob and ob/ob; Tph2+/− mice. (I) Histomorphometric analysis of vertebrae of ob/ob and ob/ob; Tph2+/− mice. (J) Representative traces of action potentials recorded from WT mice before, during and after the application of leptin (100 nM). R.M.P. −43.0 mV. (K-L) Analysis of serotonergic neuron action potential (AP) frequency in brainstem slices from WT (K) and ObRbSERT−/− (L) mice. All panels (except D, E, G, H and K) *P<0.05; **P<0.01 (Student's t test). Error bars, SEM. […]
RNA isolation, cDNA preparation and qPCR analysis was carried out following standard protocols. Genotypes of all the mice were determined by PCR. […]

Test [5] concerns phosphorylation of Stat3. Briefly: Co-immunolocalization of Stat3 phosphorylation in serotonergic neurons of the brainstem after acute leptin ICV infusion. The test is classed as in vivo, mice. The text has this: Multiple lines of evidence indicate that it is by inhibiting BDS synthesis that leptin prevents bone mass accrual. First, ObRb, the signaling form of the leptin receptor, is expressed in β-galactosidase-positive Tph2-expressing neurons (FIG. 5A). […] Leptin inhibits synthesis of BDS, which in turn reduces, by signaling in VMH neurons, the sympathetic tone; as a result leptin prevents bone mass accrual.
Animals were anaesthetized and placed on a stereotaxic instrument (Stoelting) and the depth of anesthesia was determined by the animal's respiratory pattern and by pinching the animal's foot for reflex response. The dorsal part of the animal's head was shaved and prepped with betadine scrub, and 70% alcohol. The skin covering the head was then cut (approximately a 1 cm incision) and the calvaria exposed. A hole was drilled upon bregma using a 28-gauge needle. A 28 gauze needle canula (Brain infusion kit II, Alzet) was then implanted into the hole reaching the third cerebral ventricle according to the following coordinates: midline, −0.3 AP. 3 mm ventral (0 point Bregma). Using a Hamilton syringe, PBS or leptin (2 μg) was injected into the 3rd cerebral ventricle. The dorsal edges of the incision were coated with Bupivicaine 0.25% (<2 mg/kg), joined and closed with 2 sterile clips. […]

Turning to `NCCc1c[nH]c2ccc(O)cc12` [serotonin], the CREB phosphorylation result in test [1] is “increased CREB phosphorylation in arcuate neurons”.

In the case of MTII, the “c-Fos expression in neurons of the paraventricular and arcuate nuclei” value in test [2] is reported as “increased c-Fos expression”.

Take “leptin: adipocyte-derived hormone that regulates appetite and energy expenditure”: the “action potential frequency in serotonergic neurons” value in test [3] was “significantly decreased action potential frequency”. Further, the Tph2 expression entry in test [4] was “decreased Tph2 expression in a time- and dose-dependent manner”. Besides, the entries for the “phosphorylation of Stat3 in serotonergic neurons of the brainstem” value in test [5] (ObRbSERT-/- mice) and in test [5] (WT mice) were “dramatically reduced” and “increased”, respectively.
